In patent publication US4129659A, “Method for improving cardiovascular function with salinomycin” (The University of Miami, priority 1977, dated 1978):
Where two headings read alike, the source gives them in different places.

Key:
[1] = tested on: heart and coronary circulation of anesthetized dogs; test: Physiological effects of ionophores in anesthetized dogs: inotropic and coronary flow potency relative to lasalocid; assay type: in vivo, dog
Procedure: Extended experimental studies were conducted involving a number of ionophores.
^1 Studies conducted on anesthetized dogs.
^2 Ionotropic potencies are expressed as the reciprocal of the dose
required to double dP/dt Max., relative to the dose of Lasolocid required
^3 Coronary flow potency is calculated as the inotropic potency,
normalized for coronary flow by the factor: coronary flow increased
produced by doubling dose of the test ionophore/coronary flow produced by
the doubling dose of Lasalocid.

[2] = tested on: skeletal and cardiac muscle; test: Skeletal and cardiac myopathy upon chronic administration; assay type: in vivo; settings: in words
[3] = tested on: heart and coronary circulation of anesthetized dogs; test: Hemodynamic effects of intravenous salinomycin in anesthetized normal dogs; assay type: in vivo, dog (normal female mongrel dogs); settings: for Coronary Flow, % of Control / dP/dt, % of Control: Table 1
Procedure: Normal female mongrel dogs, weighing 30-35 lbs., were anesthetized with intravenous sodium pentobarbital (20 mg/kg.) and artificially ventilated. […] The derivative of the left ventricular pressure (dP/dt) was obtained from a Millar micromanometer-tipped catheter after differentiation by an appropriate R-C circuit. The electrocardiogram was monitored from standard leads attached to the extremities of the dog. All parameters were recorded simultaneously and continuously by a multichannel photographer recorder, and were monitored during the experiments by a multichannel oscilloscope.
After all vital parameters had become stable, 0.03 mg/kg of salinomycin in absolute ethanol was administered over a period of 30 seconds to 1 minute. An hour later a larger dose of 0.06 mg/kg was administered to the same dog.
Further information on the hemodynamic effects of salinomycin were obtained in a study involving seven dogs. Using the same procedure set forth hereinabove and after all vital parameters had become stable, 0.075 mg/kg of salinomycin in absolute ethanol was administered over a period of 30 seconds to one minute.

intra-cellular Na+ = test: Intracellular cation exchange (Na+ for K+); settings: in exchange for K+; in words
Solubility in water = assay type: physicochemical; settings: in words
Oral LD50 in chickens = settings: chicken, in vivo, oral administration
[4] = tested on: erythrocytes of whole fresh human blood; test: RBC K+ leak: release of erythrocyte potassium into plasma fraction in vitro; assay type: cell-based; settings: for Ratio 2/4 (coronary flow potency / RBC K+ leak potency): dog coronary flow vs human RBC K+ leak; for Ratio 2/4 (coronary flow potency / RBC K+ leak potency) / Ratio 1/4 (inotropic potency / RBC K+ leak potency) / RBC K+ Leak Potency (column 4): relative to lasalocid; for Ratio 1/4 (inotropic potency / RBC K+ leak potency): dog inotropy vs human RBC K+ leak; for RBC K+ Leak Potency (column 4): reciprocal of concentration which leaked 15 mM K+/hr from erythrocytes
Procedure: ^4 RBC K^+ leak potency is the reciprocal of the concentration
which leaked 15 mMK^+ /hr. from the erythrocytes of whole fresh human
blood, relative to that of Lasalocid. The reference concentration of
The intrinsic ability of the test ionophores to release cellular potassium was measured using whole human blood and assaying the release of erythrocyte potassium into the plasma fraction in vitro.

Oral LD50 in dogs = settings: dog, in vivo, oral administration
heart = test: Studies in anesthetized normal and infarcted dogs and isolated guinea pig and rabbit hearts; assay type: in vivo, dog; settings: in words
cardiac muscle = settings: in words; cited from earlier work
[5] = tested on: skeletal and cardiac muscle; settings: prior finding ("it has been shown"); in words; cited from earlier work
[6] = reciprocal of dose required to double dP/dt Max., relative to lasalocid, anesthetized dogs
[7] = 0.03 mg/kg in absolute ethanol, anesthetized dog
[8] = 0.06 mg/kg, an hour after 0.03 mg/kg, same dog
[9] = 0.075 mg/kg, seven dogs, P <.001
[10] = 0.075 mg/kg, seven dogs, P <.01
[11] = inotropic potency normalized for coronary flow increase at doubling dose, relative to lasalocid, anesthetized dogs

For `CO[C@H]1C[C@@H](C[C@H]2O[C@@](O)([C@H](C)C(=O)O)[C@H](C)[C@H](OC)[C@@]2(C)O[C@H]2CC[C@@H](OC)[C@H](C)O2)O[C@]2(O[C@@](C)([C@@H]3CC[C@H]([C@H]4CC[C@H]([C@H]5O[C@](C)(O)[C@H](C)C[C@@H]5C)O4)O3)[C@H](OC)[C@H]2C)[C@@H]1C` [Septamycin], the “Inotropic Potency” value [1, 6] was 2.0.
With `CC[C@@H](C(=O)[C@@H](C)[C@@H](O)[C@H](C)[C@@H]1O[C@@H]([C@@H](CC)C(=O)O)CC[C@@H]1C)[C@H]1O[C@]2(C=C[C@@H](O)[C@]3(CC[C@@](C)([C@H]4CC[C@](O)(CC)[C@H](C)O4)O3)O2)[C@H](C)C[C@@H]1C` [Salinomycin, salinomycin] the “skeletal and cardiac myopathy upon chronic administration” value [2] was “This undesirable effect has not been shown”, the “Coronary Flow, % of Control” value [3, 7] was 175% and the “dP/dt, % of Control” value [3, 7] was 131%. For the same compound, the “Coronary Flow, % of Control” value [3, 8] was 375%, the “dP/dt, % of Control” value [3, 8] was 180% and the “Cardiac Output, Mean % Control” value [3, 9] was 178%. For the same compound, the “dP/dt Max., Mean % Control” value [3, 9] was 204%, the “Coronary Flow, Mean % Control” value [3, 10] was 522% and the “Coronary Resistance, Mean % Control” value [3, 10] was 38%. The “Heart Rate, Mean % Control” value [3, 10] was 113%, the “Total Peripheral Resistance, Mean % Control” value ([3]; 0.075 mg/kg, seven dogs, P <.02) was 77% and the “Cardiac Output + Salinomycin (mean ± SE)” value ([3]; 0.075 mg/kg, seven dogs, control 1.83 ± .2, P <.001) was 3.2 ± .2 L/min. The “Coronary Flow + Salinomycin (mean ± SE)” value ([3]; 0.075 mg/kg, seven dogs, control 21 ± 4.8, P <.01) was 93 ± 19 mL/min, the “Heart Rate + Salinomycin (mean ± SE)” value ([3]; 0.075 mg/kg, seven dogs, control 152 ± 7, P <.01) was 170 ± 4 min.^-1 and the “Coronary Resistance + Salinomycin (mean ± SE)” value ([3]; 0.075 mg/kg, seven dogs, control 460 ± 98, P <.01) was 150 ± 25 dynes sec cm^-5. The “dP/dt Max. + Salinomycin (mean ± SE)” value ([3]; 0.075 mg/kg, seven dogs, control 2340 ± 265, P <.001) was 4700 ± 618 mm. Hg sec^-1, the “Total Peripheral Resistance + Salinomycin (mean ± SE)” value ([3]; 0.075 mg/kg, seven dogs, control 4200 ± 600, P <.02) was 3200 ± 400 dynes sec cm^-5 and the ED (2-fold dP/dt max) ([3]; Canis lupus familiaris, iv, in absolute ethanol, anesthetized dogs, read-out: dose that doubles left ventricular max. dP/dt) was 0.075 mg/kg. For the same compound, the “cardiovascular effects (inotropic, chronotropic)” value ([3]; in words) was “positive inotropic effects with minimal chronotropic effects”, the “effect on intra-cellular Na+” value (intra-cellular Na+) was “increase in intra-cellular Na^+ in exchange for K^+” and the solubility in water (Solubility in water) was “minimal solubility in water”. The LD50 (Oral LD50 in chickens) was 125 mg/kg, the “pharmacological effect vs potassium release, compared with other carboxylic ionophores” value ([4]; Table 3, columns 5 and 6, in words) was “superior to all other carboxylic ionophores examined” and the “Ratio 2/4 (coronary flow potency / RBC K+ leak potency)” value [4] was 1.96. For the same compound, the “Ratio 1/4 (inotropic potency / RBC K+ leak potency)” value [4] was 1.21, the “RBC K+ Leak Potency (column 4)” value [4] was 10.0 and the LD50 (Oral LD50 in dogs) was 10 mg/kg. The “separation between positive inotropy and coronary vasodilation” value ([1]; compared with other carboxylic ionophores, in words) was “more pronounced separation between the two principal cardiotonic responses of positive inotropy and coronary vasodilation”, the “Coronary Flow Potency” value [1, 11] was 19.6 and the “Inotropic Potency” value [1, 6] was 12.1. The “effect on cardiac output, coronary flow and myocardial work efficiency” value (heart) was “increases in cardiac output, coronary flow and myocardial work efficiency”, the “effect on coronary arteries” value (heart) was “dilates the coronary arteries” and the “effect on force of myocardial contraction and heart rate” value (heart) was “increases the force of myocardial contraction and heart rate”. The “effect on total peripheral resistance” value (heart) was “decreases the total peripheral resistance”.
With `CC[C@@H]1O[C@@H]([C@]2(C)C[C@@H](C)[C@](O)([C@]3(C)CC[C@@H]([C@@H](O)[C@]4(O)O[C@H](C[C@@]5(O)O[C@@H]([C@@H](C)[C@H](O)C[C@H]6CC[C@H](C)[C@@H]([C@@H](C)C(=O)O)O6)CC[C@@H]5C)[C@@H](C)C[C@H]4C)O3)O2)CC[C@@]1(C)O` [X-206] the “Ratio 2/4 (coronary flow potency / RBC K+ leak potency)” value [4] was “.79”, the “Ratio 1/4 (inotropic potency / RBC K+ leak potency)” value [4] was “.70” and the “RBC K+ Leak Potency (column 4)” value [4] was 10.9. The “Coronary Flow Potency” value [1, 11] was 8.6 and the “Inotropic Potency” value [1, 6] was 7.7.
In the case of `NCCc1ccc(O)c(O)c1` [dopamine], the “cardiac effects (prior art)” value (cardiac muscle) is given as “exerts positive inotropic and chronotropic effects”.
For `CC[C@@]1([C@@H]2O[C@@H]([C@H]3O[C@@](O)(CO)[C@H](C)C[C@@H]3C)C[C@@H]2C)CC[C@H]([C@]2(C)CC[C@]3(C[C@H](O)[C@@H](C)[C@@H]([C@@H](C)[C@@H](OC)[C@H](C)C(=O)O)O3)O2)O1` [Monensin], the “Ratio 2/4 (coronary flow potency / RBC K+ leak potency)” value [4] was 1.4, the “Ratio 1/4 (inotropic potency / RBC K+ leak potency)” value [4] was “.84” and the “RBC K+ Leak Potency (column 4)” value [4] was 7.2. The “Coronary Flow Potency” value [1, 11] was 10.0 and the “Inotropic Potency” value [1, 6] was 6.1.
In the case of `CO[C@H]1CC[C@@H](O[C@H]2C[C@H]([C@]3(C)CC[C@]4(C[C@H](O)[C@@H](C)[C@@H]([C@@H](C)/C=C(\C)C(=O)[C@H](C)C[C@H](C)C(=O)O)O4)O3)O[C@]3(O[C@@H]([C@H]4O[C@@](O)(CO)[C@H](C)C[C@@H]4C)C[C@@H]3C)[C@@H]2C)O[C@@H]1C` [Dianemycin], the “Ratio 2/4 (coronary flow potency / RBC K+ leak potency)” value [4] is reported as “.25”, the “Ratio 1/4 (inotropic potency / RBC K+ leak potency)” value [4] is reported as “.24” and the “RBC K+ Leak Potency (column 4)” value [4] is reported as 18.0. For the same compound, the “Coronary Flow Potency” value [1, 11] was 4.6 and the “Inotropic Potency” value [1, 6] was 4.3.
With Lysocellin the “Ratio 1/4 (inotropic potency / RBC K+ leak potency)” value [4] was “.36”, the “RBC K+ Leak Potency (column 4)” value [4] was 4.1 and the “Inotropic Potency” value [1, 6] was 1.5.
In the case of `CC[C@@H](C(=O)[C@@H](C)[C@@H](O)[C@H](C)CCc1ccc(C)c(O)c1C(=O)O)[C@H]1O[C@](CC)([C@H]2CC[C@](O)(CC)[C@H](C)O2)C[C@@H]1C` [Lasalocid, lasalocid], the “cardiac effects (prior art)” value (cardiac muscle) is given as “cardiotrophic properties”, the “Ratio 2/4 (coronary flow potency / RBC K+ leak potency)” value [4] is given as 1.0 and the “Ratio 1/4 (inotropic potency / RBC K+ leak potency)” value [4] is given as 1.0. For the same compound, the “concentration which leaked 15 mM K+/hr. from erythrocytes” value ([4]; human) was 11.5 µM, the “Coronary Flow Potency” value [1] was 1.0 and the “Inotropic Potency” value [1] was 1.0. For the same compound, the “Ratio 2/1 (coronary flow potency / inotropic potency)” value ([1]; relative to lasalocid, anesthetized dogs) was 1.0.
In the case of `COC1CCC(OC2C(C)C(O)(C(C)C(=O)O)OC(CC3CC(OC)C(C)C4(O3)OC(C)(C3CCC(C5CCC(C6OC(C)(O)C(C)C(OC)C6C)O5)O3)C(OC)C4C)C2(C)OC)OC1C` (stereo not drawn) [A-204], the “Ratio 2/4 (coronary flow potency / RBC K+ leak potency)” value [4] is reported as “.34”, the “Ratio 1/4 (inotropic potency / RBC K+ leak potency)” value [4] is reported as “.32” and the “increase in potassium cellular leakage potency compared with salinomycin” value ([4]; human) is reported as 400%. For the same compound, the “RBC K+ Leak Potency (column 4)” value [4] was 41.0, the “coronary flow potency compared with salinomycin” value ([1]; in words) was “markedly reduced coronary flow potency than salinomycin” and the “inotropic potency compared with salinomycin” value ([1]; in words) was “slightly higher inotropic potency than salinomycin”. The “Coronary Flow Potency” value [1, 11] was 14.1, the “Inotropic Potency” value [1, 6] was 13.1 and the “skeletal and cardiac myopathy upon chronic administration” value [5] was “exhibits the undesirable side effects of skeletal and cardiac myopathy upon chronic administration”.
In the case of `COC1CC(CC2CCC(C)C(C(C)C(=O)O)O2)OC2(OC(C)(C3CCC(C)(C4OC(C5OC(O)(CO)C(C)CC5C)CC4C)O3)CC2C)C1C` (stereo not drawn) [Nigerlcin], the “Ratio 2/4 (coronary flow potency / RBC K+ leak potency)” value [4] is reported as “.21”, the “Ratio 1/4 (inotropic potency / RBC K+ leak potency)” value [4] is reported as “.17” and the “RBC K+ Leak Potency (column 4)” value [4] is reported as 16.4. The “Coronary Flow Potency” value [1, 11] was 3.4 and the “Inotropic Potency” value [1, 6] was 2.8.
